Assay results taken from patent publication US10072011B2, “Substituted bridged urea analogs as sirtuin modulators” (GlaxoSmithKline Intellectual Property (No.2) Limited, priority 2014, dated 2018).
Where two headings read alike, the source gives them in different places.

Target: T1, SIRT1 (Homo sapiens, UniProt Q96EB6)
T1 sequence (Q96EB6 1-747): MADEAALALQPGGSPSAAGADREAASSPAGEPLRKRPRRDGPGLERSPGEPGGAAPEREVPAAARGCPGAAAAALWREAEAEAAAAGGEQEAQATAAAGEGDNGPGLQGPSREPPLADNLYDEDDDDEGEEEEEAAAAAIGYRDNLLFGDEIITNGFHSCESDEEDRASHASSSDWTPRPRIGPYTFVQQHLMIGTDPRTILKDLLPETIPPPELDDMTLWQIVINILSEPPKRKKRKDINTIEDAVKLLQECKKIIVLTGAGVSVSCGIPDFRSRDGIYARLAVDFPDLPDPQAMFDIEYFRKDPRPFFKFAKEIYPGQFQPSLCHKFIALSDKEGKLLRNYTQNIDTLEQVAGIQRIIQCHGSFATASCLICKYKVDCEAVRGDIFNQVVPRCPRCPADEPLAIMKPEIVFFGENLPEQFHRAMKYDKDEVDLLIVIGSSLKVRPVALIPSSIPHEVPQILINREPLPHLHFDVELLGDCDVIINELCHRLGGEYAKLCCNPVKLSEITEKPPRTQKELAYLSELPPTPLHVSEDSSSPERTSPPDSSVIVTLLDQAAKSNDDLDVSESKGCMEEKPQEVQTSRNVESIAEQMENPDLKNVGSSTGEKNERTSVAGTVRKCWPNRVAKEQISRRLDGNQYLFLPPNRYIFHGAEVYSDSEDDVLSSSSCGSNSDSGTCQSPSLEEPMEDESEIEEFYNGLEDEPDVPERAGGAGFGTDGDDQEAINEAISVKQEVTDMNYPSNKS
Experiment: Trp mass spectrometry assay of SIRT1 activation (Ac-R-H-K-K(Ac)-W-NH2 peptide)
Assay type: biochemical
Conditions: for Emax: 25 min, read-out: TRP MAX RESP (percent maximum fold activation)
Procedure: The Trp mass spectrometry assay was conducted as follows. […] The SIRT1 protein was obtained by cloning the SirT1 gene into a T7-promoter containing vector, which was then expressed in BL21(DE3) bacterial cells and purified as described in further detail below. Test compound was added at varying concentrations to this reaction mixture and the resulting reactions were monitored. After the 25 minute incubation with SIRT1, 10 μL of 10% formic acid was added to stop the reaction. The resulting reactions were sealed and frozen for later mass spec analysis. The relative SIRT1 activity was then determined by measuring the amount of O-acetyl-ADP-ribose (OAADPR) formed (or, alternatively, the amount of deacetylated Trp peptide generated) by the NAD-dependent sirtuin deacetylation reaction in the presence of varying concentrations of the test compound versus control reactions lacking the test compound. The degree to which the test agent activated deacetylation by SIRT1 was expressed as EC1.5 (i.e., the concentration of compound required to increase SIRT1 activity by 50% over the control lacking test compound), and Percent Maximum Activation (i.e., the maximum activity relative to control (100%) obtained for the test compound).
This time point was the same as that used for test compounds and, within the linear range, the endpoint represents a change in velocity.
For the above assay, SIRT1 protein was expressed and purified as follows. The SirT1 gene was cloned into a T7-promoter containing vector and transformed into BL21(DE3). The protein was expressed by induction with 1 mM IPTG as an N-terminal His-tag fusion protein at 18° C. overnight and harvested at 30,000×g. Cells were lysed with lysozyme in lysis buffer (50 mM Tris-HCl, 2 mM Tris[2-carboxyethyl]phosphine (TCEP), 10 μM ZnCl2, 200 mM NaCl) and further treated with sonication for 10 min for complete lysis. The protein was purified over a Ni-NTA column (Amersham) and fractions containing pure protein were pooled, concentrated and run over a sizing column (Sephadex S200 26/60 global). The peak containing soluble protein was collected and run on an Ion-exchange column (MonoQ). Gradient elution (200 mM-500 mM NaCl) yielded pure protein. This protein was concentrated and dialyzed against dialysis buffer (20 mM Tris-HCl, 2 mM TCEP) overnight. The protein was aliquoted and frozen at −80° C. until further use.
“NT” means not tested; “ND” means not determinable.

[1] = Trp peptide 0.5 μM, 120 μM βNAD+, 10 nM SIRT1, 25 min at 25° C., relative to control (100%)
[2] = Trp peptide 0.5 μM, 120 μM βNAD+, 10 nM SIRT1, 25 min at 25° C.

Emax [1]	TRP Activity (EC1.5, concentration of test compound that results in 150% activation of SIRT1) [2]	TRP MAX RESP (percent maximum fold activation) [1]	SMILES	Emax
> 150%	B (EC1.5 1-25 μM)	–	C#CC(C)(C)NC(=O)c1ccc2c(n1)N(C(=O)Nc1ccccn1)[C@H]1CCN2C1 [Example 253, (4S)—N7-(2-methylbut-3-yn-2-yl)-N5-(pyridin-2-yl)-3,4-dihydro-1,4-methanopyrido[2,3-b][1,4]diazepine-5,7(2H)-dicarboxamide]	–
< 150%	A (EC1.5<1 μM)	–	C[C@@H](NC(=O)c1ccc2c(n1)N(C(=O)Nc1cc(N3CCOCC3)ccn1)[C@H]1CCN2C1)C(F)(F)F [Example 307, (4S)—N5-(4-morpholinopyridin-2-yl)-N7-((R)-1,1,1-trifluoropropan-2-yl)-3,4-dihydro-1,4-methanopyrido[2,3-b][1,4]diazepine-5,7(2H)-dicarboxamide]	–
> 150%	B (EC1.5 1-25 μM)	–	CC(C)(CO)CNC(=O)c1ccc2c(n1)N(C(=O)Nc1ccccn1)[C@H]1CCN2C1 [Example 41, (4S)—N7-(3-hydroxy-2,2-dimethylpropyl)-N5-(pyridin-2-yl)-3,4-dihydro-1,4-methanopyrido[2,3-b][1,4]diazepine-5,7(2H)-dicarboxamide]	–
> 150%	A (EC1.5<1 μM)	–	CNC(=O)c1ccnc(NC(=O)N2c3nc(C(=O)N[C@H](C)C(F)(F)F)ccc3N3CC[C@H]2C3)c1 [Example 151, (4S)—N5-(4-(methylcarbamoyl)pyridin-2-yl)-N7-((R)-1,1,1-trifluoropropan-2-yl)-3,4-dihydro-1,4-methanopyrido[2,3-b][1,4]diazepine-5,7(2H)-dicarboxamide]	–
> 150%	A (EC1.5<1 μM)	–	Cc1ncc(-c2cc(NC(=O)N3c4nc(C(=O)NCC(F)(F)F)ccc4N4CC[C@H]3C4)ncn2)o1 [Example 169, (4S)—N5-(6-(2-methyloxazol-5-yl)pyrimidin-4-yl)-N7-(2,2,2-trifluoroethyl)-3,4-dihydro-1,4-methanopyrido[2,3-b][1,4]diazepine-5,7(2H)-dicarboxamide]	–
> 150%	A (EC1.5<1 μM)	–	Cc1ncc(-c2ccnc(NC(=O)N3c4nc(C(=O)NCC(F)(F)F)ccc4N4CC[C@H]3C4)c2)o1 [Example 115, (4S)—N5-(4-(2-methyloxazol-5-yl)pyridin-2-yl)-N7-(2,2,2-trifluoroethyl)-3,4-dihydro-1,4-methanopyrido[2,3-b][1,4]diazepine-5,7(2H)-dicarboxamide]	–
–	B (EC1.5 1-25 μM)	A (Fold activation≥150%)	O=C(NC1CC1(F)F)c1ccc2c(n1)N(C(=O)Nc1cccnn1)[C@H]1CCN2C1 (single isomer, unassigned) [Example 271]	–
> 150%	A (EC1.5<1 μM)	–	Cc1ccc2c(NC(=O)N3c4nc(C(=O)N[C@H](CO)C(F)(F)F)ccc4N4CC[C@H]3C4)n[nH]c2n1 [Example 139, (4S)—N5-(6-methyl-1H-pyrazolo[3,4-b]pyridin-3-yl)-N7-((R)-1,1,1-trifluoro-3-hydroxypropan-2-yl)-3,4-dihydro-1,4-methanopyrido[2,3-b][1,4]diazepine-5,7(2H)-dicarboxamide]	–
> 150%	B (EC1.5 1-25 μM)	–	Cn1ncc2c(NC(=O)N3c4nc(C(=O)NCC(F)(F)F)ccc4N4CC[C@H]3C4)cccc21 [Example 220, (4S)—N5-(1-methyl-1H-indazol-4-yl)-N7-(2,2,2-trifluoroethyl)-3,4-dihydro-1,4-methanopyrido[2,3-b][1,4]diazepine-5,7(2H)-dicarboxamide]	–
> 150%	B (EC1.5 1-25 μM)	–	Cc1ncc(-c2ccnc(NC(=O)N3c4nc(C(=O)N[C@H](C)C(F)(F)F)c(Cl)cc4N4CC[C@H]3C4)c2)o1 [Example 281, (4S)-8-chloro-N5-(4-(2-methyloxazol-5-yl)pyridin-2-yl)-N7-((R)-1,1,1-trifluoropropan-2-yl)-3,4-dihydro-1,4-methanopyrido[2,3-b][1,4]diazepine-5,7(2H)-dicarboxamide]	–
> 150%	B (EC1.5 1-25 μM)	–	CC(F)(F)CNC(=O)c1ccc2c(n1)N(C(=O)Nc1cc(OC[C@H](O)CO)ccn1)[C@H]1CCN2C1 [Example 183, (4S)—N7-(2,2-difluoropropyl)-N5-(4-((R)-2,3-dihydroxypropoxy)pyridin-2-yl)-3,4-dihydro-1,4-methanopyrido[2,3-b][1,4]diazepine-5,7(2H)-dicarboxamide]	–
> 150%	A (EC1.5<1 μM)	–	O=C(NCC(F)(F)F)c1nc2c(cc1Cl)N1CC[C@@H](C1)N2C(=O)Nc1ccccn1 [Example 279, (4S)-8-chloro-N5-(pyridin-2-yl)-N7-(2,2,2-trifluoroethyl)-3,4-dihydro-1,4-methanopyrido[2,3-b][1,4]diazepine-5,7(2H)-dicarboxamide]	–
> 150%	A (EC1.5<1 μM)	–	COc1ccnc(NC(=O)N2c3nc(C(=O)N[C@H](C)C(F)(F)F)ccc3N3CC[C@H]2C3)c1 [Example 135, (4S)—N5-(4-methoxypyridin-2-yl)-N7-((R)-1,1,1-trifluoropropan-2-yl)-3,4-dihydro-1,4-methanopyrido[2,3-b][1,4]diazepine-5,7(2H)-dicarboxamide]	–
> 150%	A (EC1.5<1 μM)	–	CC[C@@H](C)NC(=O)c1ccc2c(n1)N(C(=O)Nc1ccccn1)[C@H]1CCN2C1 [Example 33, (4S)—N7-((R)-sec-butyl)-N5-(pyridin-2-yl)-3,4-dihydro-1,4-methanopyrido[2,3-b][1,4]diazepine-5,7(2H)-dicarboxamide]	–
> 150%	–	–	C[C@@H](NC(=O)c1ccc2c(n1)N(C(=O)Nc1cc(OC[C@H](O)CO)ccn1)[C@H]1CCN2C1)C(F)(F)F [Example 74, (4S)—N5-(4-((R)-2,3-dihydroxypropoxy)pyridin-2-yl)-N7-((R)-1,1,1-trifluoropropan-2-yl)-3,4-dihydro-1,4-methanopyrido[2,3-b][1,4]diazepine-5,7(2H)-dicarboxamide]	–

SMILES	Emax [1]	TRP Activity (EC1.5, concentration of test compound that results in 150% activation of SIRT1) [2]	TRP MAX RESP (percent maximum fold activation) [1]	Emax
N#CCNC(=O)c1ccc2c(n1)N(C(=O)Nc1ccccn1)[C@H]1CCN2C1 [Example 107, (4S)—N7-(cyanomethyl)-N5-(pyridin-2-yl)-3,4-dihydro-1,4-methanopyrido[2,3-b][1,4]diazepine-5,7(2H)-dicarboxamide]	–	A (EC1.5<1 μM)	–	> 150%
C[Si](C)(C)CNC(=O)c1ccc2c(n1)N(C(=O)Nc1ccccn1)[C@H]1CCN2C1 [Example 108, (4S)—N5-(pyridin-2-yl)-N7-((trimethylsilyl)methyl)-3,4-dihydro-1,4-methanopyrido[2,3-b][1,4]diazepine-5,7(2H)-dicarboxamide]	> 150%	A (EC1.5<1 μM)	–	–
